Reference: US11111248B2, “Crystal form of 2-(6-methyl-pyridin-2-yl)-3-yl-[6-amido-quinolin-4-yl]-5,6-dihydro-4H-pyrrolo[1,2-B]pyrazole, preparation method therefor and pharmaceutical composition thereof” (Hangzhou SoliPharma Co., Ltd., priority 2017, dated 2021)
Values after ≈ are worked out from the molar mass of the structure shown. “Also recorded” adds a separate entry of the source.

Tests used:
Type in all cases: physicochemical
water solubility test = details: for Solubility: 25° C.±2° C., visual clarity, 5 mg sample, max 100 mL water
Description: Accurately weighed 5 mg samples in a 200 mL flask which was in a water bath with temperature 25° C.±2° C., added water in a geometric fashion the flask, stirred (about 200 r/min), and observed by naked eyes to see if it was clear. Water was added every 3 mins, maximum water amount 100 mL.

[1] = isothermal sorption (dynamic vapor sorption); details: 0% RH to 80% RH; for hygroscopicity: isothermal sorption
Description: Dynamic vapor sorption data and isothermal sorption data were collected on TA Instruments Q5000 TGA. Method: A sample of 1 to 10 mg was placed in a platinum pan; the weight change of the sample during the change in relative humidity from 0% to 80% to 0% was measured.

[2] = thermal phase stability from DSC and TGA thermograms; details: for phase transformation on heating: DSC and TGA thermograms
Description: […] data were collected on TA Instruments Q200 DSC. Method: A sample of 1 to 10 mg was placed in an aluminum pan with a pin-holed lid, and the sample was heated from room temperature to 200° C. at a heating rate of 10° C./min under the protection of dry nitrogen purge at 40 mL/min.
Thermogravimetric analysis data were collected on TA Instruments Q500 TGA. Method: A sample of 5 to 15 mg was placed in a platinum pan, using High Resolution™, the sample was heated from room temperature to 350° C. at a heating rate of 10° C./min under the protection of dry nitrogen purge at 40 mL/min.

SMILES	water solubility (water solubility test)	Solubility (water solubility test) [µg/mL]	hygroscopicity [1]	phase transformation on heating [2]	weight change, isothermal sorption curve [1] [%]	dehydration and start of phase transition temperature ([2]; DSC) [°C]	phase transition temperature lower than that of Form 2 ([2]; DSC thermograms, difference to Form 2) [°C]
Cc1cccc(-c2nn3c(c2-c2ccnc4ccc(C(N)=O)cc24)CCC3)n1 [LY2157299 Form 1, 2-(6-methyl-pyridin-2-yl)-3-(6-amido-quinolin-4-yl)-5,6-dihydro-4h-pyrrolo[1,2-b]pyrazole]	about 160 ug/mL	160 (≈ 433 µM)	non-hygroscopic	no phase transformation before melting			
Cc1cccc(-c2nn3c(c2-c2ccnc4ccc(C(N)=O)cc24)CCC3)n1 [LY2157299 Form 2, 2-(6-methyl-pyridin-2-yl)-3-(6-amido-quinolin-4-yl)-5,6-dihydro-4h-pyrrolo[1,2-b]pyrazole]	about 200 ug/mL	200 (≈ 541 µM)	slightly hygroscopic		0.25		
Cc1cccc(-c2nn3c(c2-c2ccnc4ccc(C(N)=O)cc24)CCC3)n1 [LY2157299 Form 3, 2-(6-methyl-pyridin-2-yl)-3-(6-amido-quinolin-4-yl)-5,6-dihydro-4h-pyrrolo[1,2-b]pyrazole]	about 150 μg/mL	150 (≈ 406 µM)	non-hygroscopic	no phase transformation before melting			
Cc1cccc(-c2nn3c(c2-c2ccnc4ccc(C(N)=O)cc24)CCC3)n1 [LY2157299 Form 4, 2-(6-methyl-pyridin-2-yl)-3-(6-amido-quinolin-4-yl)-5,6-dihydro-4h-pyrrolo[1,2-b]pyrazole]	about 100 ug/mL	100 (≈ 271 µM)	slightly hygroscopic		0.95		
Cc1cccc(-c2nn3c(c2-c2ccnc4ccc(C(N)=O)cc24)CCC3)n1 [LY2157299 Form 7, 2-(6-methyl-pyridin-2-yl)-3-(6-amido-quinolin-4-yl)-5,6-dihydro-4h-pyrrolo[1,2-b]pyrazole]	about 100 μg/mL	100 (≈ 271 µM)					
Cc1cccc(-c2nn3c(c2-c2ccnc4ccc(C(N)=O)cc24)CCC3)n1 [LY2157299 Monohydrate, 2-(6-methyl-pyridin-2-yl)-3-(6-amido-quinolin-4-yl)-5,6-dihydro-4h-pyrrolo[1,2-b]pyrazole]		<50	slightly hygroscopic	dehydrates under temperature and its phase transformes; also recorded: dehydrates under temperature and has phase transformation		133	60
